Where “and” joins values, the source holds several entries; their conditions need not be identical. Identical values can stand only once.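 Five concentrations, 48 hours, 96-well plates. GI50: concentration for 50% inhibition of growth.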 Calls of active or inactive are those of the source. Rule as the data show it: active = GI50 up to about 1.1 µM and inactive = higher.
Experiments:
Test in all cases: DTP human tumour cell line panel, 48 h
A549 = tested on: A549
HOP-62 = tested on: HOP-62
HOP-92 = tested on: HOP-92
MCF7 = tested on: MCF7
MDA-MB-231 = tested on: MDA-MB-231
MDA-MB-435 = tested on: MDA-MB-435
MDA-N = tested on: MDA-N
MOLT-4 = tested on: MOLT-4
NCI-H460 = tested on: NCI-H460
OVCAR-5 = tested on: OVCAR-5
RXF 393 = tested on: RXF 393
SF-295 = tested on: SF-295
SF-539 = tested on: SF-539
SN12C = tested on: SN12C
T47D = tested on: T47D
UACC-62 = tested on: UACC-62
UO-31 = tested on: UO-31
CCRF-CEM = tested on: CCRF-CEM
SNB-75 = tested on: SNB-75

Compound | GI50 (A549) | GI50 (HOP-62) | GI50 (HOP-92) | GI50 (MCF7) | GI50 (MDA-MB-231) | GI50 (MDA-MB-435) | GI50 (MDA-N) | GI50 (MOLT-4) | GI50 (NCI-H460) | GI50 (OVCAR-5) | GI50 (RXF 393) | GI50 (SF-295) | GI50 (SF-539) | GI50 (SN12C) | GI50 (T47D) | GI50 (UACC-62) | GI50 (UO-31) | GI50 (CCRF-CEM) | GI50 (SNB-75)
CC[C@H](C)C1=C(O)[N@+]2([O-])Oc3ccc(-c4c(O)c(O)c(-c5ccc(O)cc5)c(OC(C)=O)c4OC(C)=O)cc3O[C@]2([C@@H](C)CC)C(=O)N1O | 16.7 µM (inactive) | 30.1 µM (inactive) | 6.52 µM (inactive) | 18.7 µM (inactive) | > 50 µM (inactive) | 28.1 µM (inactive) | 29.2 µM (inactive) | 16.3 µM (inactive) | 19 µM (inactive) | > 50 µM (inactive) | > 50 µM (inactive) | 24.8 µM (inactive) | 18 µM (inactive) | 19.3 µM (inactive) | > 50 µM (inactive) | 17.4 µM (inactive) | 33.8 µM (inactive) | – | –
CC(=O)OC1OC(c2ccoc2)C[C@@]12C1CCC3O[C@]3(C)[C@]1(C)C[C@H](OC(C)=O)[C@H]2C (some centres not stated) | > 75 µM (inactive) | – | 72.8 µM (inactive) | 44.9 µM (inactive) | 45.9 µM (inactive) | > 75 µM (inactive) | > 75 µM (inactive) | > 75 µM (inactive) | 58.3 µM (inactive) | > 75 µM (inactive) | > 75 µM (inactive) | > 75 µM (inactive) | > 75 µM (inactive) | > 75 µM (inactive) | 35.2 µM (inactive) | 51.3 µM (inactive) | 70.8 µM (inactive) | 38.1 µM (inactive) | > 75 µM (inactive)
N#Cc1c2ccc([N+](=O)[O-])cc2c(=O)n2c1[nH]c1ccc(C(F)(F)F)cc12 | > 55.8 µM (inactive) | 26.9 µM (inactive) | 12.9 µM (inactive) | 63.4 µM (inactive) | 22.2 µM (inactive) | 54 µM (inactive) | > 64.9 µM (inactive) | 14.5 µM (inactive) | 21.1 µM (inactive) | 14.3 µM (inactive) | – | 14.4 µM (inactive) | > 100 µM (inactive) | > 42.4 µM (inactive) | 32.4 µM (inactive) | 42.7 µM (inactive) | 17.5 µM (inactive) | 1.35 µM (inactive) | 27.3 µM (inactive)
CCOC(=O)c1cc2c3c(c(C(C)=O)c(O)c2[nH]1)N(CC(C)CC)CC3 (configuration not stated) | 62.8 µM (inactive) | – | 45.3 µM (inactive) | > 100 µM (inactive) | 33 µM (inactive) | 44.3 µM (inactive) | 35.7 µM (inactive) | 26.3 µM (inactive) | > 100 µM (inactive) | – | 34.6 µM (inactive) | 45 µM (inactive) | 70 µM (inactive) | > 100 µM (inactive) | 21.9 µM (inactive) | 71.6 µM (inactive) | 83.4 µM (inactive) | 35.6 µM (inactive) | 30.7 µM (inactive)
CN(C(=O)c1ccc2c(c1)sc1c(=O)n(C)c3ccccc3c12)c1ccccc1 | > 100 µM (inactive) | – | > 100 µM (inactive) | > 100 µM (inactive) | > 100 µM (inactive) | > 100 µM (inactive) | > 100 µM (inactive) | > 100 µM (inactive) | > 100 µM (inactive) | > 100 µM (inactive) | > 100 µM (inactive) | > 100 µM (inactive) | > 100 µM (inactive) | > 100 µM (inactive) | > 100 µM (inactive) | > 100 µM (inactive) | 37.7 µM (inactive) | > 100 µM (inactive) | > 100 µM (inactive)
N#CC(c1ccccc1)N(CCCCCCN(C(=O)c1ccccc1)C(C#N)c1ccccc1)C(=O)c1ccccc1 (configuration not stated) | 40.7 µM (inactive) | – | 16.5 µM (inactive) | 28.1 µM (inactive) | 47.6 µM (inactive) | 32.8 µM (inactive) | 45.1 µM (inactive) | 34.4 µM (inactive) | 27.6 µM (inactive) | > 100 µM (inactive) | 52.1 µM (inactive) | 27.9 µM (inactive) | 41.5 µM (inactive) | 44.9 µM (inactive) | 28.5 µM (inactive) | 26.3 µM (inactive) | 18 µM (inactive) | 49.8 µM (inactive) | 52.4 µM (inactive)
COc1ccc2cc(C(C)C(O)c3cc(F)c(F)c(F)c3F)ccc2c1 (configuration not stated) | > 100 µM (inactive) | 26.2 µM (inactive) | 18.6 µM (inactive) | > 100 µM (inactive) | > 100 µM (inactive) | > 100 µM (inactive) | > 100 µM (inactive) | > 10 µM (inactive) | > 100 µM (inactive) | > 100 µM (inactive) | – | 40.4 µM (inactive) | – | > 100 µM (inactive) | 53.5 µM (inactive) | > 100 µM (inactive) | 86.5 µM (inactive) | > 100 µM (inactive) | 16.3 µM (inactive)
C/C(=N/NC(=O)c1ccccc1Nc1ccccc1C(=O)N/N=C(\C)c1ccc(C)cc1)c1ccc(C)cc1 | 46.3 µM (inactive) | 11.4 µM (inactive) | > 100 µM (inactive) | 14.6 µM (inactive) | 79.1 µM (inactive) | > 100 µM (inactive) | > 100 µM (inactive) | 37.8 µM (inactive) | 15.5 µM (inactive) | > 100 µM (inactive) | 12.2 µM (inactive) | 22.9 µM (inactive) | – | > 100 µM (inactive) | > 100 µM (inactive) | 31.8 µM (inactive) | > 100 µM (inactive) | 25.2 µM (inactive) | > 100 µM (inactive)
S=C(N/N=C/c1ccccn1)Nc1ccc(Cl)cc1 | 0.307 µM (active) | 0.181 µM (active) | 0.282 µM (active) | 0.0489 µM (active) | 0.0542 µM (active) | 0.373 µM (active) | 0.933 µM (active) | < 0.01 µM (active) | 0.0635 µM (active) | 0.191 µM (active) | – | 0.181 µM (active) | 0.364 µM (active) | 0.32 µM (active) | 0.0169 µM (active) | 0.114 µM (active) | 0.0514 µM (active) | < 0.01 µM (active) | 0.236 µM (active)
CN(C)CCCNC1=C(Cl)C(=O)c2c(O)ccc(O)c2C1=O | 1.66 µM (inactive) | 2.61 µM (inactive) | 8.2 µM (inactive) | 1.55 µM (inactive) | 2.9 µM (inactive) | 1.6 µM (inactive) | 1.85 µM (inactive) | 2.58 µM (inactive) | 2.13 µM (inactive) | 1.59 µM (inactive) | – | 1.73 µM (inactive) | 1.69 µM (inactive) | 1.81 µM (inactive) | 2.09 µM (inactive) | 1.59 µM (inactive) | 6.04 µM (inactive) | 2.47 µM (inactive) | 9.04 µM (inactive)
COCCN(CCOC)C(=O)COc1c2cc(C(C)(C)C)cc1Cc1cc(C(C)(C)C)cc(c1OCC(=O)N(CCOC)CCOC)Cc1cc(C(C)(C)C)cc(c1OCC(=O)N(CCOC)CCOC)Cc1cc(C(C)(C)C)cc(c1OCC(=O)N(CCOC)CCOC)Cc1cc(C(C)(C)C)cc(c1OCC(=O)N(CCOC)CCOC)C2 | 0.802 µM (active) | 1.73 µM (inactive) | – | 1.3 µM (inactive) | 1.99 µM (inactive) | 2.09 µM (inactive) | 2.1 µM (inactive) | 1.74 µM (inactive) | 1.12 µM (inactive) | 5.55 µM (inactive) | 1.09 µM (active) | 1.54 µM (inactive) | 2.34 µM (inactive) | 0.851 µM (active) | 1.27 µM (inactive) | 1.18 µM (inactive) | 0.366 µM (active) | 0.705 µM (active) | 0.0881 µM (active)
CC1OC(OC2C(OC(=O)[C@]34CCC(C)(C)C[C@H]3C3=CC[C@@H]5[C@@]6(C)CC[C@H](OC7OC(C(=O)O)C(O)C(O)C7O)C(C)(C)[C@@H]6CC[C@@]5(C)[C@]3(C)CC4)OCC(O)C2O)C(O)C(O)C1OC1OCC(O)C(O)C1O (some centres not stated) | 35.2 µM (inactive) and 30.6 µM (inactive) | – | 30.6 µM (inactive) and 20.5 µM (inactive) | 50.1 µM (inactive) and 41.5 µM (inactive) | 11 µM (inactive) and 21.5 µM (inactive) | 18.3 µM (inactive) and 18.9 µM (inactive) | 17.9 µM (inactive) and 18.2 µM (inactive) | – | > 100 µM (inactive) | 48.2 µM (inactive) and 31 µM (inactive) | > 100 µM (inactive) and 70.1 µM (inactive) | – | – | 22.1 µM (inactive) and 19.4 µM (inactive) | 34.8 µM (inactive) and 56.9 µM (inactive) | 39.4 µM (inactive) and 28 µM (inactive) | 16.8 µM (inactive) and 22.1 µM (inactive) | 77.4 µM (inactive) | –
C=C=C(C)C(=O)N(C(C)C)C(C)C | > 100 µM (inactive) | > 100 µM (inactive) | > 100 µM (inactive) | > 100 µM (inactive) | > 100 µM (inactive) | > 100 µM (inactive) | > 100 µM (inactive) | > 100 µM (inactive) | > 100 µM (inactive) | > 100 µM (inactive) | – | > 100 µM (inactive) | – | > 100 µM (inactive) | > 100 µM (inactive) | > 100 µM (inactive) | > 100 µM (inactive) | > 100 µM (inactive) | > 100 µM (inactive)
COc1ccc2c(c1)CC1C3(CCCCC23)CC[N+]1(C)C (configuration not stated) | > 100 µM (inactive) | > 100 µM (inactive) | 87.5 µM (inactive) | > 100 µM (inactive) | > 100 µM (inactive) | 84.9 µM (inactive) | > 100 µM (inactive) | > 100 µM (inactive) | > 100 µM (inactive) | > 100 µM (inactive) | > 100 µM (inactive) | > 100 µM (inactive) | – | 38.7 µM (inactive) | > 100 µM (inactive) | > 100 µM (inactive) | > 100 µM (inactive) | > 100 µM (inactive) | 34.4 µM (inactive)
OC1(c2ccc(Cl)cc2)C(N2CCCC2)c2ccccc2C2=NCCN21 (configuration not stated) | 39.9 µM (inactive) | 31.8 µM (inactive) | 12.6 µM (inactive) | 28.5 µM (inactive) | 24.3 µM (inactive) | 25.6 µM (inactive) | 17.8 µM (inactive) | 16 µM (inactive) | 24.2 µM (inactive) | 43.7 µM (inactive) | 29.1 µM (inactive) | 13.6 µM (inactive) | 18.5 µM (inactive) | 30.7 µM (inactive) | 17.7 µM (inactive) | 16.6 µM (inactive) | 33 µM (inactive) | 17.6 µM (inactive) | –

From ChEMBL document CHEMBL1201862, “PubChem BioAssay data set” (2004)
